34 compounds from PubChem BioAssay AID850 (SRMLSC, 2007) can be followed below.

Assay [1] in a line: concentration-response yeast growth inhibition under permissive conditions, counter-assay for yeast lifespan-shortening chemical project (AID 850).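 Note: growth read as optical density after one day of incubation.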 As to conditions: Saccharomyces cerevisiae growth inhibition, permissive control, measured here: maximum growth inhibition, stronger effect = higher value.
In assay [2] the test system is Saccharomyces cerevisiae growth inhibition, permissive control. The description is as above.

Active and inactive are the calls of the source. The rule behind the calls is not given here.

As to `O=[N+]([O-])c1ccc(Sc2nc3ccccc3o2)c([N+](=O)[O-])c1`, the inhibition in assay [1] (at 50 µM) amounted to 48.3%. In assay [2], the half-inhibitory concentration (IC50) was 50.1 µM.
The like results for `CCCCCCCOC(=O)C[N+](C)(C)CCOC1CC2CCC1(C)C2(C)C` (stereo not drawn) were, in that order, 99.4% and 29.2 µM.
Consider `O=C(O)c1ccc2nc(-c3ccccc3)sc2c1`, for which the inhibition in assay [1] (at 0.781 µM) was found to be 28.2%. In addition, the IC50 in assay [2] was > 100 µM (inactive).
As for `O=C1NC(=S)N(c2ccccc2F)C(=O)/C1=C\c1cccs1`, the inhibition in assay [1] (at 50 µM) is 91.4%. Also, the 50% inhibitory concentration (IC50) in assay [2] is 13.6 µM.
Take `O=C1c2ccccc2C(=O)c2c1cccc2N1CCOCC1`: in assay [1] (at 0.195 µM), the inhibition was found to be 13.5%. For the same compound, the IC50 in assay [2] is > 100 µM (inactive).
Turning to `O=C1CCN2C=Nc3cccc4ccc1c2c34`, the inhibition in assay [1] (at 25 µM) came to 26%. The IC50 in assay [2] was > 100 µM (inactive).
On to `O=C(N/N=C/c1sc2ccccc2c1O)c1cccc2ccccc12`, for which, in assay [1] (at 50 µM), the inhibition was 93.6%. For the same compound, in assay [2], the 50% inhibitory concentration (IC50) is 15.2 µM.
For the compound `OC(Cn1cncn1)(c1ccccc1)c1ccccc1`, in assay [1] (at 12.5 µM), the inhibition was 90.3%. For the same compound, the 50% inhibitory concentration (IC50) in assay [2] is 6.82 µM.
Turning to `N/C(Cc1ccc(Cl)cc1)=N\OC(=O)c1cccc2ccccc12`, the inhibition in assay [1] (at 50 µM) turned out to be 99.6%. For the same compound, in assay [2], the half-inhibitory concentration (IC50) was 44.3 µM.
In the case of `CCCCCCCCCCCCCCCC[n+]1ccc(C(N)=O)cc1`, the inhibition in assay [1] (at 25 µM) turned out to be 100%. In addition, in assay [2], the half-inhibitory concentration (IC50) was 0.545 µM.
For `OC(CNCCc1ccc(C(F)(F)F)cc1)COc1ccc2ccccc2c1` (stereo not drawn), the inhibition in assay [1] (at 50 µM) was 20.9%. Further, the IC50 in assay [2] is > 100 µM (inactive).
The matching figures for `Cc1ccc(N/N=C/c2cccnc2)cc1`: 97% and 13 µM.
Turning to `COc1ccc(Br)cc1C1CC(=O)N2CN(C)CSC2=C1C#N` (stereo not drawn), the inhibition in assay [1] (at 1.563 µM) is 17%. Also, the IC50 in assay [2] is > 100 µM (inactive).
On to `Cc1ccc(O)c(-c2cc(-c3cccc(F)c3)n[nH]2)c1`, for which the inhibition in assay [1] (at 50 µM) amounted to 96.9%. In addition, in assay [2], the 50% inhibitory concentration (IC50) was 25 µM.
Regarding `Cc1ccc(/C=C2\C(=O)Nc3ccccc32)o1`, in assay [1] (at 25 µM), the inhibition amounted to 26.6%. Moreover, the IC50 in assay [2] was > 100 µM (inactive).
Consider `Cc1cccc(OCCN2CSC(=S)N(C)C2)c1`, for which, in assay [1] (at 50 µM), the inhibition came out at 87.3%. Also, the 50% inhibitory concentration (IC50) in assay [2] is 10.6 µM.
The matching figures for `O=C(CSC1=NCCS1)N1CCN(c2ccc(Cl)cc2)CC1`: 20.7% and > 100 µM (inactive).
Regarding `CCOc1cccc(-c2nnc3n2N=C(c2cc(OC)ccc2OC)CS3)c1`, in assay [1] (at 6.25 µM), the inhibition is 14.8%. The IC50 in assay [2] is > 100 µM (inactive).
As for `Cc1ccc(OC(=S)Nc2ccc(O)cc2)cc1`, in assay [1] (at 50 µM), the inhibition was determined as 99.6%. Besides, in assay [2], the IC50 is 16.3 µM.
As to `O=[N+]([O-])c1ccccc1-c1cc(-c2cc(Cl)ccc2O)n[nH]1`, in assay [1] (at 12.5 µM), the inhibition was 16.3%. Moreover, the IC50 in assay [2] is > 100 µM (inactive).
The matching figures for `O=C(CC(=O)c1cc(Cl)ccc1O)c1ccccc1`: 24.9% and > 100 µM (inactive).
Take `CC1=C(C)/C(=N\OS(=O)(=O)c2ccccc2)C=CC1=O`: in assay [1] (at 50 µM), the inhibition turned out to be 99%. Moreover, the IC50 in assay [2] was 6.14 µM.
The like results for `Cc1cc(C)cc(N=Cc2ccc([N+](=O)[O-])s2)c1` were, in that order, 100% and 12.3 µM.
Take `CCOC(=O)/C(=N\Nc1cccc(C(F)(F)F)c1)N(CCOC)CCOC`: the inhibition in assay [1] (at 12.5 µM) is -1.36%. Further, the IC50 in assay [2] was > 100 µM (inactive).
As to `Clc1ccc(N/N=C/c2cccnc2)cc1`, in assay [1] (at 25 µM), the inhibition came to 78.3%. For the same compound, in assay [2], the IC50 was 19 µM.
For `CC(C)Sc1nc(N)nc(-c2cccs2)c1C#N`, in assay [1] (at 1.563 µM), the inhibition was found to be 14.6%. Besides, the IC50 in assay [2] was > 100 µM (inactive).
Take `C=CCN1C(=O)/C(=C/c2cccs2)C(=O)NC1=S`: the inhibition in assay [1] (at 50 µM) amounted to 99.8%. For the same compound, the IC50 in assay [2] was 6.15 µM.
The matching figures for `O=C(Oc1ccc(Cl)c2cccnc12)c1ccco1`: 100% and 12.4 µM.
As for `COc1ccc(C(=O)NC(=S)NNC(=O)c2cnccn2)cc1OC`, in assay [1] (at 25 µM), the inhibition is 47.1%. In addition, the concentration for half-maximal inhibition (IC50) in assay [2] was 46.5 µM.
Consider `O=C(/C=C/c1ccccc1)c1cc(Br)ccc(=O)c1O`, for which the inhibition in assay [1] (at 50 µM) is 98.8%. Further, the IC50 in assay [2] was 12.2 µM.
For `CCC1CCCCN1C(=O)CSc1nnc(-c2ccc(OC)cc2)o1` (stereo not drawn), the inhibition in assay [1] (at 12.5 µM) was 24.1%. Besides, in assay [2], the IC50 was > 100 µM (inactive).
As to `c1ccc(-c2nc(-n3ccnc3)nc(-n3ccnc3)n2)cc1`, in assay [1] (at 1.563 µM), the inhibition turned out to be 17.9%. In addition, the IC50 in assay [2] is > 100 µM (inactive).
As to `CCc1ccc(C2NC(=S)NC3=C2C(=O)N(c2ccccc2OC)C(c2ccc(CC)cc2)N3)cc1` (stereo not drawn), the inhibition in assay [1] (at 0.781 µM) is 2.18%. Besides, in assay [2], the IC50 was > 100 µM (inactive).
Turning to `CCCCCCOC(=O)Sc1nc2ccccc2o1`, the inhibition in assay [1] (at 50 µM) was 99%. For the same compound, in assay [2], the half-inhibitory concentration (IC50) is 11.7 µM.
